In US9376444:
Read-outs that look alike come from different tables or passages of the source.

Conditions: rcm bond, Grubbs II, DCM, 40.0 °C

Structure (SMILES): C[C@@H]1/C=C/C[C@H](NC(=O)OC(C)(C)C)c2cn(COCC[Si](C)(C)C)c(n2)-c2ccc([N+](=O)[O-])cc2NC1=O
- ring closure, yield of all isomers (from C=CC[C@H](NC(=O)OC(C)(C)C)c1cn(COCC[Si](C)(C)C)c(-c2ccc([N+](=O)[O-])cc2NC(=O)[C@H](C)C=C)n1, 1.016 mM): 55.9%

Structure (SMILES): COC(=O)Nc1ccc2c(c1)NC(=O)[C@H](C)/C=C/C[C@H](NC(=O)OC(C)(C)C)c1cc-2ccn1
- ring closure, yield of all isomers (from C=CC[C@H](NC(=O)OC(C)(C)C)c1cc(-c2ccc(NC(=O)OC)cc2NC(=O)[C@H](C)C=C)ccn1, 11.76 mM, 4.0 h): 71.2%

Structure (SMILES): COC(=O)Nc1ccc2c(c1)NC(=O)[C@H](C)/C=C/C[C@H](NC(=O)OC(C)(C)C)c1nc-2cn1COCC[Si](C)(C)C
- ring closure, yield of all isomers (from C=CC[C@H](NC(=O)OC(C)(C)C)c1nc(-c2ccc(NC(=O)OC)cc2NC(=O)[C@H](C)C=C)cn1COCC[Si](C)(C)C, 9.73 mM, 21.5 h): 74%
